# Experimental data published in patent publication US20050123514A1, “Increased transduction using ABC transporter substrates and/or inhibitors” (priority 2003, published 2005).
# “And” between values parts separate entries of the source, which are not always exact repeats. Equal values may be shown once. Read-outs that look alike come from different tables or passages of the source.
# Experiments:
# [1] = tested on: CD34+ cells from mobilized peripheral blood; type: cell-based, human
# Protocol: (§1) Supernatant was collected repeatedly 24 to 72 hours after transfection, pooled, and then concentrated by ultracentrifugation at 10,000 rpm for 12 hours. Clinical grade vector was packaged similarly in 293F cells under more stringent laboratory conditions. Supernatant was harvested at 24 hours and 36 hours after transfection. The supernatant is filtered through a series of cartridge filters of decreasing pore diameter, then concentrated by ultrafiltration. Benzonase is added by diafiltration to destroy contaminating plasmid and cellular DNA. The material is applied to a Sephacryl-500 gel filtration column then filtered through a 0.22-micron filter.
# Cells: Frozen CD34 positive cells (greater than 98% purity) derived from adult bone marrow, adult G-CSF mobilized peripheral blood and cord blood were purchased from AllCells (Berkeley, Calif.). Additional peripheral blood CD34 cells mobilized by cyclophosphamide and GCSF and were generous gifts from Dr. Christian Chabannon.
# (§2) Research grade vector transduction with VRX430: CD34+ cells were thawed according to manufacturer's specifications, then cultured at 37° C. for 1 hour. Cells were cultured with an inhibitor at 37° C. for 0 to 90 minutes before addition of vector. MOI 25 to 50 of vector was added to plates coated with 1.5 μg/cm^2 Retronectin (Takara, Japan), then cells were added to the plate and cultured at 37° C.. Twenty-four hours after inhibitor addition, the cells were washed free of vector and drug and were resuspended in fresh medium containing MOI 25 of vector and cultured at 37° C.. CD34+ cells were cultured in IMDM (Invitrogen, Carlsbad, Calif.) supplemented with 1× BIT (Stem Cell Technologies, Vancouver BC) and 25 to 100 ng/ml of TPO, Flt-3L and SCF (R&D Systems, Minneapolis, Minn.). Cells used in in vitro assays were washed free of vector four days after the start of transduction. Cells transplanted into mice were washed free of vector two days after the start of transduction and immediately transplanted into mice.
# Cell culture: Four days after transduction CD34 positive cells were washed free of vector and maintained in liquid culture in IMDM plus 1× BIT supplemented with 25 ng/mL TPO, SCF, and Flt-3L, or plated in CFU and LTC-IC assays. Five hundred to 1000 cells were plated in methylcellulose (H3231, Stem Cell Technologies, Vancouver, BC) supplemented with […] and 1 U/mL EPO. Colony growth was scored two weeks after plating and was analyzed by flow cytometry for GFP expression. One to 3×10^5 cells were overlayed upon MS-5 stromal cells for the LTC-IC assay. The cells underwent demidepopulation weekly, in which half of the medium was removed and replaced with fresh medium. The cells collected in each demidepopulation were analyzed by flow cytometry. After 5 weeks, a mix of adherent and non-adherent cells was plated into methylcellulose supplemented as above for formation of secondary CFU. Colonies were scored three weeks after plating and analyzed for GFP expression by flow cytometry.
# CD34+ cells isolated from mobilized peripheral blood were cultured short and long term.
# [2] = tested on: human CD34 positive cells; type: cell-based; conditions: for effect on transduction efficiency (in words): summary statements
# [3] = tested on: Hematopoietic stem cells (hsc); conditions: research grade vector
# Protocol: as §1
# as §2, with “Cells transplanted into mice were washed free of vector two days after the start of transduction and immediately transplanted into mice.” left out
# Cell culture: Four days after transduction CD34 positive cells were washed free of vector and maintained in liquid culture in IMDM plus 1× BIT supplemented with 25 ng/mL TPO, SCF, and Flt-3L, or plated in CFU and LTC-IC assays. […] Colony growth was scored two weeks after plating and was analyzed by flow cytometry for GFP expression. […] The cells collected in each demidepopulation were analyzed by flow cytometry. […] Colonies were scored three weeks after plating and analyzed for GFP expression by flow cytometry.
# [4] = tested on: SCID repopulating cells (SRC); test: NOD-SCID xenotransplantation of transduced cord blood CD34+ cells (SRC), primary transplant; type: in vivo, NOD-SCID mice
# Protocol: (§3) Mice: NOD.CB17-Prkdcscid/J (formerly known as NOD/LtSz-Prkdcscid/J) mice were purchased from Jackson Laboratories (Bar Harbor, Me.) and housed in microisolatorcages at Bioqual, Inc (Rockville, Md.). All experiments were approved by the ACUC. 6 to 7 week old mice were sublethally irradiated with 350 cGy (^137Cs source), then transplanted the next day with 2×10^5 cord blood CD34+ cells. Mice sacrificed at 6 to 8 weeks were tested for EGFP expression in CD45+, CD34+, CD33+, CD19+ and CD3+ subsets from the bone marrow using PE conjugated antibodies (clones HI30, 581, WM53, HIB19, UCHT1, respectively, Pharmingen, San Diego, Calif.) by flow cytometry (FACSCaliber, Becton Dickinson, Franklin Lakes, N.J.). Mice sacrificed at 14 weeks were analyzed for EGFP expression in the CD45+, CD34+, CD33+, CD19+ and CD3+ subsets in the marrow, spleen and thymus. For secondary transplantation, half of the total marrow recovered from the primary mouse was transplanted into 350 cGy irradiated secondary recipient NOD.CB17-Prkdcscid/J mice. Mice were sacrificed after 8 weeks and analyzed for EGFP expression in the CD45+, CD33+ and CD19 subsets from the bone marrow.
# [5] = tested on: SCID repopulating cells (SRC); test: Secondary transplantation of SRCs in NOD/SCID mice; type: in vivo
# Protocol: as §3
# NOD-SCID mice were given a primary transplantation of stem cells isolated from cord blood in the presence of antibody to the murine IL-2 receptor beta chain to inhibit natural killer cell lysis of the transplanted cells. […] Bone marrow was isolated at 14 weeks post transplantation. Total recovered cells (a mixture of human and mouse) were transplanted into naïve NOD/SCID recipient mice at 15-20×10^6 cells per mouse. During secondary transplantation, mice were not given antibody to the murine IL-2 receptor due to inhibitory cost; therefore the percentage engraftment is much lower. Mice were sacrificed at 8 weeks post transplantation, and the percentage of GFP-positive human cells was assessed by flow cytometry (Table 3).
# [6] = bone marrow, 8 weeks post secondary transplantation, individual mice, cells transduced + verapamil
Molecule,effect on transduction efficiency (in words) [1],CD34 GFP [1] [%],CFU GFP [1] [%],LTC GFP [1] [%],Secondary CFU GFP [1] [%],effect on transduction efficiency (in words) [2],also measured
CC(C)c1nc(CN(C)C(=O)N[C@H](C(=O)N[C@@H](Cc2ccccc2)C[C@H](O)[C@H](Cc2ccccc2)NC(=O)OCc2cncs2)C(C)C)cs1 [ritonavir],increased transduction efficiency,,,,,,"percentage of GFP-expressing cells compared with diltiazem or verapamil ([1]; mPB short and long term cultures, ritonavir 5 μM or 20 μM, FIG. 3): did not increase the percentage of GFP-expressing cells as well as diltiazem or verapamil"
COc1ccc([C@@H]2Sc3ccccc3N(CCN(C)C)C(=O)[C@@H]2OC(C)=O)cc1 [diltiazem],significant increase in transduction efficiency,19,15,23,26,increased transduction to levels similar to verapamil,
COc1ccc(CCN(C)CCCC(C#N)(c2ccc(OC)c(OC)c2)C(C)C)cc1OC (stereo not drawn) [verapamil],,,,,56,,"CD34 copy number [1]: 3.2; copy numbers, increase versus no verapamil ([3]; long-term cultures): 8 fold; copy numbers, increase versus no verapamil ([3]; short-term cultures): 2 fold; percentage of transduced cells ([3]; with verapamil, both short and long term cultures): 70-80%; frequency and distribution of hematopoietic subsets ([4]; NOD-SCID mice, cells transduced in verapamil): unchanged; increase in SRC transduction over levels in the absence of verapamil ([4]; SRC recovered from the bone marrow of NOD-SCID mice): three to four-fold; GFP expression in repopulating cells ([4]; bone marrow and spleen, 14 weeks post-hsc transfer, FIG. 5): high percentage of GFP positive repopulating stem cells; GFP expression in human CD45, CD34, CD33, CD19 cells ([4]; bone marrow, 6-8 weeks post-hsc transfer, 50 and 75 μg/ml verapamil pooled, FIG. 4): significantly higher percentage of GFP expressing cells; percentage of GFP-positive cells versus transduced without drug ([5]; CD45, CD19 and CD33 lineages, secondary transplantation): increased percentage of GFP-positive cells; % CD45 Engraft. [5, 6]: <0.1% and 0.3%; % GFP CD19 [5, 6]: 100% and 98%; % GFP CD33 [5, 6]: 38% and 51%; % GFP CD45 [5, 6]: 59% and 97%"
COC(=O)[C@H]1[C@H]2C[C@@H]3c4[nH]c5cc(OC)ccc5c4CCN3C[C@H]2C[C@@H](OC(=O)c2cc(OC)c(OC)c(OC)c2)[C@@H]1OC [reserpine],did not increase transduction efficiency,3,5,5,3,did not increase transduction efficiency,
sodium orthovanadate,reduced efficiency of gene transfer,,,,,did not increase transduction efficiency,
CCCN(CCC)S(=O)(=O)c1ccc(C(=O)O)cc1 [probenecid],did not increase transduction efficiency,9,8,11,4,,increase in transduction ([2]; hematopoietic cells): less than 2 fold
